{
  "source": "patent US12398117B2",
  "about": "“Heteroarylamidopyridinol derivative and pharmaceutical composition comprising same as active ingredient for prevention or treatment of autoimmune disease” (INNOVO THERAPEUTICS INC., priority 2019, dated 2025)",
  "key": {"[1]": {"tested_on": "adhesion of intestinal epithelial cells (HT-29) and monocytic cells (U937) induced by IL-6", "experiment": "Inhibition of IL-6-induced adhesion of monocytes and intestinal epithelial cells", "assay_type": "cell-based, human", "settings": "Homo sapiens", "in_short": "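HT-29 monolayers pretreated 1 h with test drug in 1% FBS medium, then co-incubated 3 h at 37 °C with BCECF-labeled U937 monocytes plus IL-6 (10 ng/mL). After removal of non-adherent cells, bound monocytes quantified by BCECF fluorescence of Triton X-100 lysates.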"}, "[2]": {"tested_on": "DSS-induced acute enteritis mouse model", "experiment": "Oral efficacy in DSS-induced acute enteritis mouse model", "assay_type": "in vivo, C57BL/6 mice", "settings": "for Body weight recovery rate (%) / Intestinal weight recovery rate (%): acute enteritis (DSS), mouse", "experimental": "C57BL/6 mice aged 7-8 weeks were purchased from OrientBio (Korea), stabilized with general solid feed for 7 days, and then used in this experiment. Feed and water were freely supplied during the experiment period, and the temperature of the breeding room was maintained at 25±1° C. and the relative humidity at 50±10%. Lighting management was controlled in a 12-hour light-dark cycle by an automatic lighting controller.\nEnteritis was induced in mice by allowing them to freely ingest drinking water containing 2% DSS salt (M.W. 36,000˜50,000, MP Biomedicals, LLC, OH, USA). For the chronic enteritis model, DSS was administered using a schedule of DSS administration for the first 7 days, administration of normal drinking water for 14 days, repeated administration of DSS for 7 days from the 21st day, and administration of normal drinking water for 7 days. The drug was administered once a day, 6 days a week from the first day of DSS treatment (FIG. 2A). […] In order to measure the dose-dependent therapeutic effect of the drug in the acute enteritis model, DSS was administered for 5 days to induce enteritis, and then the drug was administered for 14 days to measure the degree of recovery and treatment of enteritis (FIG. 3A). The drug was administered orally once daily for […] at a fixed time.\nChanges in body weight of each mouse were observed during the DSS and drug administration using a digital mass meter.\nThe colon of the mouse was extracted, and the length and weight from the anus to the cecum were measured.\nThe degree of neutrophil infiltration in the tissue was measured by the amount of MPO, a neutrophil marker enzyme. The colon tissue with a size of 1 cm was washed with cold PBS and weighed, to which a lysis buffer (pH7.4, 200 mM NaCl, 5 mM EDTA, 10 mM tris, 10% glycerin, 1 mM PMSF, 1 μg/mL leupeptin and 28 μg/mL aprotinin) was added (500 μL of per 10 mg of tissue weight), and then homogenized using Bead Blaster® D2400 homogenizer (Benchmark Scientific, NJ, USA). […] (HK210, Hycult Biotechnology, Netherlands). The supernatant was added to a 96 well plate (100 μL/well) coated with an anti-mouse MPO antibody, and incubated for 1 hour at room temperature, followed by washing 3 times with a washing buffer. A reconstituted tracer was added to the plate (100 μL/well), which was reacted at room temperature for 1 hour, washed 3 times, and then 100 μL of streptavidin-peroxidase conjugate was added to each well of the plate. The plate was reacted at room temperature for 1 hour, washed, and 100 μl of TMB substrate solution was added to each well of the plate, followed by reaction for 30 minutes. The reaction was terminated by adding 100 μL of a stop solution to each well of the plate, and absorbance was measured at 450 nm. MPO activity means the amount of 1 μM […] at 25° C. for 1 minute. This was calculated as the amount of MPO contained in 1 mL of the colon tissue homogenate.\nTissue staining was performed in the same manner as in the case of hematoxylin/eosin staining of the rat colon tissue, and scoring indexes of mucosal damage and recovery were applied in the same way."}},
  "data": [
    {"smiles": "Cc1ccc2[nH]c(C(=O)Nc3nc(C)c(O)c(C)c3C)cc2c1", "note": "[Compound X-09, N-(5-hydroxy-3,4,6-trimethylpyridin-2-yl)-5-methyl-1H-indole-2-carboxamide]", "values": [
      {"measurement": "inhibition at 1 µM", "setting": "[1]; 3 h, test drug 1 μM, IL-6 10 ng/mL, HT-29/U937, read-out: inhibitory activity (%)", "value": 71.7, "unit": "%"},
      {"measurement": "IC50", "setting": "[1]; inhibition of adhesion by IL-6", "value": 340, "unit": "nM"},
      {"measurement": "Morphological observation of colon, therapeutic effect versus tofacitinib", "setting": "[2]; DSS acute mouse, 10 mg/kg, FIG. 3C", "value": "significantly superior to that of the control group treated with 30 mg/kg of tofacitinib"},
      {"measurement": "Morphological observation of colon", "setting": "[2]; DSS acute mouse, X-09 dose range, FIG. 3C", "value": "dose-dependent therapeutic efficacy"},
      {"measurement": "level of MPO in colon tissue", "setting": "[2]; DSS acute mouse, X-09 dose range, FIG. 3E", "value": "decreased by compound X-09 dose-dependently"},
      {"measurement": "Mucosal damage recovery of mouse colon (hematoxylin-eosin score)", "setting": "[2]; DSS mouse, X-09 dose range, FIG. 4", "value": "dose-dependent mucosal damage recovery effect"},
      {"measurement": "Body weight recovery rate (%)", "setting": "[2]; 0.3 mg/kg", "value": 56.5, "unit": "%"},
      {"measurement": "Intestinal weight recovery rate (%)", "setting": "[2]; 0.3 mg/kg", "value": 48.4, "unit": "%"},
      {"measurement": "Body weight recovery rate (%)", "setting": "[2]; 1 mg/kg", "value": 72.0, "unit": "%"},
      {"measurement": "Intestinal weight recovery rate (%)", "setting": "[2]; 1 mg/kg", "value": 76.7, "unit": "%"},
      {"measurement": "Body weight recovery rate (%)", "setting": "[2]; 3 mg/kg", "value": 80.7, "unit": "%"},
      {"measurement": "Intestinal weight recovery rate (%)", "setting": "[2]; 3 mg/kg", "value": 89.0, "unit": "%"},
      {"measurement": "Body weight recovery rate (%)", "setting": "[2]; 10 mg/kg", "value": 88.1, "unit": "%"},
      {"measurement": "Intestinal weight recovery rate (%)", "setting": "[2]; 10 mg/kg", "value": 96.4, "unit": "%"}
    ]}
  ]
}
